# Test results: patent US20260337156A1, “SOLUBILIZING COMPOUNDS” (Vivesto AB, priority 2022, published 2026)
# “Also recorded” adds a separate entry of the source.
# Assay: particle size and polydispersity index of drug micelles over time (ZetaSizer)
# Assay type: physicochemical
# Conditions: for change of particle size and polydispersity index over time: 0-24 h
# Procedure: Micellar size was measured using a ZetaSizer from Malvern Panalytical.
# (§1) A stock solution of docetaxel in methanol was mixed with a stock solution of compound 1 in a round bottom flask. The mixture was evaporated to dryness in a rotary evaporator. Final drying was performed in a desiccator to remove residual solvent. Hydration of the dried film was performed by adding water for injection (1.0 mL) to a concentration of 1 mg/mL of docetaxel. The resulting solution was filtered through a 0.22 μm sterile filter and further diluted with 0.9% sodium chloride solution to 0.5 mg/mL of docetaxel. […]
# (§2) A stock solution of cyclosporin in methanol was mixed with a stock solution of compound 1 in a round bottom flask. The mixture was evaporated to dryness in a rotary evaporator. Final drying was performed in a desiccator to remove residual solvent. Hydration of the dried film was performed by adding water for injection (1.0 mL) to a concentration of 1 mg/mL of cyclosporin. The resulting solution was filtered through a 0.22 μm sterile filter and further diluted with 0.9% sodium chloride solution to 0.5 mg/mL of cyclosporin. The final weight ratio of cyclosporin to micelle forming agent was 1:3.
# (§3) A stock solution of docetaxel in methanol was mixed with a stock solution of compound 3 in a round bottom flask. The mixture was evaporated to dryness in a rotary evaporator. Final drying was performed in a desiccator to remove residual solvent. Hydration of the dried film was performed by adding water for injection (1.0 mL) to a concentration of 1 mg/mL of docetaxel. The resulting solution was filtered through a 0.22 μm sterile filter and further diluted with 0.9% sodium chloride solution to 0.5 mg/mL of Docetaxel. The final weight ratio of docetaxel to micelle forming agent was 1:3.
# as §2, with “compound 3” for “compound 1”
# as §1, with “compound 4” for “compound 1”
# as §3, with “compound 5” for “compound 3”, “of docetaxel.” for “of Docetaxel.”
# A stock solution of cabazitaxel in methanol was mixed with a stock solution of compound 5 in a round bottom flask. The mixture was evaporated to dryness in a rotary evaporator. Final drying was performed in a desiccator to remove residual solvent. Hydration of the dried film was performed by adding water for injection (1.0 mL) to a concentration of 1 mg/mL of cabazitaxel. […]
# [1] = cyclosporin:compound 1:3, cyclosporin 0.5 mg/mL
# [2] = cyclosporin:compound 1:3, cyclosporin 0.5 mg/mL, time 0 h
# [3] = cyclosporin:compound 1:3, cyclosporin 0.5 mg/mL, time 1 h
# [4] = cyclosporin:compound 1:3, cyclosporin 0.5 mg/mL, time 2 h
# [5] = cyclosporin:compound 1:3, cyclosporin 0.5 mg/mL, time 4 h
# [6] = cyclosporin:compound 1:3, cyclosporin 0.5 mg/mL, time 6 h
# [7] = cyclosporin:compound 1:3, cyclosporin 0.5 mg/mL, time 24 h
# [8] = docetaxel:compound 1:3, docetaxel 0.5 mg/mL, time 0 h
# [9] = docetaxel:compound 1:3, docetaxel 0.5 mg/mL, time 1 h
# [10] = docetaxel:compound 1:3, docetaxel 0.5 mg/mL, time 2 h
# [11] = docetaxel:compound 1:3, docetaxel 0.5 mg/mL, time 4 h
# [12] = docetaxel:compound 1:3, docetaxel 0.5 mg/mL, time 6 h
# [13] = docetaxel:compound 1:3, docetaxel 0.5 mg/mL, time 24 h
# [14] = docetaxel:compound 1:5, docetaxel 0.5 mg/mL, time 0 h
# [15] = docetaxel:compound 1:5, docetaxel 0.5 mg/mL, time 1 h
# [16] = docetaxel:compound 1:5, docetaxel 0.5 mg/mL, time 2 h
# [17] = docetaxel:compound 1:5, docetaxel 0.5 mg/mL, time 4 h
# [18] = docetaxel:compound 1:5, docetaxel 0.5 mg/mL, time 6 h
# [19] = docetaxel:compound 1:5, docetaxel 0.5 mg/mL, time 24 h
Particle size [2] [nm],Polydispersity index [2],Particle size [3] [nm],Polydispersity index [3],Particle size [4] [nm],Polydispersity index [4],Particle size [5] [nm],Polydispersity index [5],Particle size [6] [nm],Polydispersity index [6],Particle size [7] [nm],Polydispersity index [7],SMILES,change of particle size and polydispersity index over time [1],further results
8.46,0.31,6.77,0.21,6.60,0.19,6.58,0.18,6.68,0.21,7.39,0.32,COc1cc(C)c(/C=C/C(C)=C/C=C/C(C)=C/C(=O)N(C)CCS(=O)(=O)[O-])c(C)c1C.[Na+] [Compound 3],Small variations in the particle size and polydispersity index over time were noted; also recorded: The changes were within acceptable range,"change of particle size and polydispersity index over time (docetaxel:compound 1:3, docetaxel 0.5 mg/mL): Small variations in the particle size and polydispersity index over time were noted; also recorded: The changes were within acceptable range; Particle size [8]: 6.19 nm; Polydispersity index [8]: 0.11; Particle size [9]: 7.19 nm; Polydispersity index [9]: 0.11; Particle size [10]: 10.06 nm; Polydispersity index [10]: 0.26; Particle size [11]: 10.18 nm; Polydispersity index [11]: 0.27; Particle size [12]: 10.25 nm; Polydispersity index [12]: 0.27; Particle size [13]: 6.20 nm; Polydispersity index [13]: 0.14"
30.71,0.10,44.70,0.22,41.29,0.10,44.53,0.10,49.61,0.19,51.37,0.14,COc1cc(C)c(/C=C/C(C)=C/C=C/C(C)=C/C(=O)N(CCS(=O)(=O)[O-])C2CCCCC2)c(C)c1C.[Na+] [Compound 1],Small increases in the particle size and variations of polydispersity index over time were noted; also recorded: The changes were within acceptable range,"change of particle size and polydispersity index over time (docetaxel:compound 1:5, docetaxel 0.5 mg/mL): Small increases in the particle size and polydispersity index over time were noted; also recorded: The changes were within acceptable range; Particle size [14]: 30.77 nm; Polydispersity index [14]: 0.10; Particle size [15]: 36.60 nm; Polydispersity index [15]: 0.16; Particle size [16]: 39.44 nm; Polydispersity index [16]: 0.16; Particle size [17]: 41.38 nm; Polydispersity index [17]: 0.18; Particle size [18]: 41.19 nm; Polydispersity index [18]: 0.20; Particle size [19]: 43.98 nm; Polydispersity index [19]: 0.21"
